Values quoted from earlier work as cited in patent publication US20090203685A1, “ANTI-PROLIFERATIVE COMPOUNDS FROM A 3-ARYL-COUMARINE OR 3-ARYL-QUINOLIN-2-ONE AND USES THEREOF” (EOS (ETHICAL ONCOLOGY SCIENCE) S.P.A., priority 2006, published 2009).

Key:
SCLC tumor = settings: in vivo; cited from earlier work
[1] = system: small cell lung carcinoma (SCLC) and lymphoid cells; settings: cited from earlier work

CN(C)CC[C@H](CSc1ccccc1)Nc1ccc(S(=O)(=O)NC(=O)c2ccc(N3CCN(Cc4ccccc4-c4ccc(Cl)cc4)CC3)cc2)cc1[N+](=O)[O-] [ABT-737]
SCLC tumor regression in mouse models (SCLC tumor): induces SCLC tumor regression | Apoptosis of SCLC and lymphoid cells [1]: induces apoptosis
